Values quoted from earlier work, collected in patent US20190027771A1, “ACID GAS REGENERABLE BATTERY” (Commonwealth Scientific and Industrial Research Organisation, priority 2015, published 2019).
Where two headings read alike, the source gives them in different places. Blank lines part the entries; values can stand above or below the compound they belong to.

What was measured:
[1] = for Cathode reaction potential E: reduction of the free metal ion to the metal; for Anode reaction potential E: reduction of the metal-ammine complex to the metal and NH3

Compound: 1,3 Diaminopropane
pKa (Table 2): 10.4
pKa (Table 3): 10.4

pKa (Table 2): 9.6
Compound: NCCCn1ccnc1 [1-(3-aminopropyl)-imidazole, 1-(3-aminopropyl)imidazole]

pKa (Table 2): 9.3
Compound: NCCOCCO [2-(2-Aminoethoxy)-ethanol, 2-(2-Aminoethoxy)ethanol]

pKa (Table 2): 11.27
Compound: CC1CCNCC1 [4-methylpiperidine]

pKa (Table 2): 10.5
pKa (Table 3): 10.5
Compound: NCCCCCO [5-Amino-1-pentanol]

Compound: [Ag+] [Ag^+]
Cathode reaction potential E [1]: E = +0.80 V

pKa (Table 2): 10.81
Compound: CCCCCN [Amylamine]

Compound: [Cd+2] [Cd^2+]
Cathode reaction potential E [1]: E = −0.403 V

Compound: [Co+2] [Co^2+]
Cathode reaction potential E [1]: E = −0.277 V

Compound: [Cu+2] [Cu^2+]
Cathode reaction potential E [1]: E = +0.34 V

pKa (Table 2): 9.47
Compound: N[C@@H](CCC(=O)O)C(=O)O [Glutamic acid]

Compound: [Hg+2] [Hg^2+]
Cathode reaction potential E [1]: E = +0.8535 V

pKa (Table 2): 9.69
Compound: C[C@H](N)C(=O)O [L-Alanine]

pKa (Table 2): 9.1
Compound: C[C@@H](O)[C@H](N)C(=O)O [L-Threonine]

Compound: [Ni+2] [Ni^2+]
Cathode reaction potential E [1]: E = −0.257 V

Compound: [Pd+2] [Pd^2+]
Cathode reaction potential E [1]: E = +0.915 V

Compound: [Pt+2] [Pt^2+]
Cathode reaction potential E [1]: E = +1.188 V

pKa (Table 2): 10.05
Compound: CNCC(=O)O [Sarcosine]

Compound: [Zn+2] [Zn^2+]
Cathode reaction potential E [1]: E = −0.763 V

Compound: N.N.[Ag+] [[Ag(NH3)2]^+]
Anode reaction potential E [1]: E = +0.37 V

Compound: N.N.N.N.[Cd+2] [[Cd(NH3)4]^2+]
Anode reaction potential E [1]: E = −0.622 V

Compound: N.N.N.N.[Co+2] [[Co(NH3)4]^2+]
Anode reaction potential E [1]: E = −0.422 V

Compound: N.N.N.N.[Cu+2] [[Cu(NH3)4]^2+]
Anode reaction potential E [1]: E = −0.04 V

Compound: N.N.N.N.[Hg+2] [[Hg(NH3)4]^2+]
Anode reaction potential E [1]: E = +0.283 V

Compound: N.N.N.N.N.N.[Ni+2] [[Ni(NH3)6]^2+]
Anode reaction potential E [1]: E = −0.49 V

Compound: N.N.N.N.[Pd+2] [[Pd(NH3)4]^2+]
Anode reaction potential E [1]: E = 0.0 V

Compound: N.N.N.N.N.N.[Pt+2] [[Pt(NH3)6]^2+]
Anode reaction potential E [1]: E = +0.144 V

Compound: N.N.N.N.[Zn+2] [[Zn(NH3)4]^2+]
Anode reaction potential E [1]: E = −1.04 V

pKa (Table 2): 9.1
Compound: CC(O)CNCC(C)O (stereo not drawn) [bis(2-hydroxypropyl)-amine, bis(2-hydroxypropyl)amine]

pKa (Table 2): 10.9
pKa (Table 3): 10.9
Compound: NCCCCCCN [hexamethylenediamine]

pKa (Table 2): 9.2
Compound: NCc1cccc(CN)c1 [m-Xylylenediamine]

Compound: Pyrrolidine
pKa (Table 2): 11.35
